One assay has as its system MOLM-13 cells. Nature of the assay: MOLM-13 cellular assay (CellTiter-Glo cell viability). Format: cell-based. Particulars: 72 hours exposure, cell viability by CellTiter-Glo. As for the experimental part:
In Vitro Assay: MOLM-13 Cellular Assay
MOLM-13 cells were obtained from DSMZ and were maintained in RPMI 1640+Glutamax+25 mM HEPES (Invitrogen, catalog number 72400) supplemented with 10% heat inactivated fetal bovine serum (FBS; Invitrogen, catalog number 16140). The day prior to assay set-up, cells were pelleted, resuspended in fresh media, counted, and cells were plated at 0.4×10^6 cell/mL in a T150 flask. On the day of the assay, cells were pelleted, resuspend in fresh media, counted and seeded at 5,000 cells/well in white opaque 96-well tissue culture treated microplates (Perkin Elmer, catalog number 6005680). Cells were exposed to different concentrations of test compounds at 37° C., 5% CO2 for 72 hours immediately after seeding. Cell viability was acquired on a Perkin Elmer Envision 2104 multilabel reader using the CellTiter-Glo assay (Promega) according to the manufacturer's instructions.

Another assay concerns the target T1, human DHODH (Homo sapiens, UniProt Q02127).
T1 construct: purchased Proteros PR-0044
As to the kind of experiment: DHODH enzymatic assay (DCIP absorbance, end-point). The class given is biochemical. Particulars: purified human DHODH, DCIP as final electron acceptor, end-point mode; read-out: hDHODH IC50. As for the experimental part: In vitro Assay: DHODH enzymatic assay
To detect DHODH enzyme activities, dichloroindophenol (DCIP) is added as the final electron acceptor in the assay. DCIP can accept electrons from the reduced coenzyme Q generated in the assay, or from dihydroorotate (DHO) via FMN by binding presumably to the ubiquinone pocket. […] The assay buffer contained […], pH 7.5, 150 mM NaCl, 0.5 mM EDTA, and 0.1% Triton X-100 in MilliQ water. Substrate consisting of 20 mM DHO, 5 mM CoQ6, and 1 mM DCIP in assay buffer, initiates the reaction. […] Absorbance measurements were obtained using the BMG Phera Star plate-reading spectrophotometer. Purified human DHODH was purchased from Proteros (cat. No. PR-0044). Chemicals were purchased from Sigma-Aldrich, Teknova, and Avanti Polar Lipids. Liquid handling was performed using Labcyte Echo and Formulatrix Tempest.

The structures appear in SMILES notation. pIC50: −log10 of the molar value.

IC50 data for 16 molecules are collected here from US20220081422A1 (Janssen Biotech, Inc., priority 2019, published 2022).

T1 sequence (Q02127 whole entry): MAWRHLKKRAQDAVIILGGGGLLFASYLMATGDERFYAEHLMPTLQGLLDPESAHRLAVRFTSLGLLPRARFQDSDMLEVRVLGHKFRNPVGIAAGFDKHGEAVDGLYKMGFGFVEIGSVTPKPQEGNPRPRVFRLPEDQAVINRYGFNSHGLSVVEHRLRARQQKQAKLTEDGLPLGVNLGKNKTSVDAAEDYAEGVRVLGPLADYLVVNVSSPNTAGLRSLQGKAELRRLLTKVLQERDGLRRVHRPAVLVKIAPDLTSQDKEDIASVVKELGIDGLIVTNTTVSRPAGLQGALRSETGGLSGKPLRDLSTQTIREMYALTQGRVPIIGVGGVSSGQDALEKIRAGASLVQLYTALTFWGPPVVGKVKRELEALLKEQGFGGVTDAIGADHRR

As to `CCn1c(CO)nn(-c2ccc3c(c2)C(C(C)C)CN(c2cccc(F)c2)C3=O)c1=O` (racemic) [Example 10, Racemic-6-(4-Ethyl-3-(hydroxymethyl)-5-oxo-4,5-dihydro-1H-1,2,4-triazol-1-yl)-2-(3-fluorophenyl)-4-isopropyl-3,4-dihydroisoquinolin-1(2H)-one], the pIC50 was under 8.52 in the assay on MOLM-13 cells (Homo sapiens, MOLM-13, 72 h) and 6.72 at human DHODH.

As to `C=C(C)C1CN(c2c(F)cccc2Cl)C(=O)c2ccc(-n3nc(CO)n(CC)c3=O)cc21` (racemic) [Example 11, Racemic-2-(2-Chloro-6-fluorophenyl)-6-(4-ethyl-3-(hydroxymethyl)-5-oxo-4,5-dihydro-1H-1,2,4-triazol-1-yl)-4-(prop-1-en-2-yl)-3,4-dihydroisoquinolin-1(2H)-one], the pIC50 in the assay with MOLM-13 cells (Homo sapiens, MOLM-13, 72 h) is 9.00; on human DHODH it was 8.77. In the same order, the values of `CCn1c(CO)nn(-c2ccc3c(c2)C(C(C)C)CN(c2ccccc2F)C3=O)c1=O` (racemic) [Example 12, Racemic-6-(4-Ethyl-3-(hydroxymethyl)-5-oxo-4,5-dihydro-1H-1,2,4-triazol-1-yl)-2-(2-fluorophenyl)-4-isopropyl-3,4-dihydroisoquinolin-1(2H)-one] are 7.24 and 6.85. In the same order, the values of `CCn1c(CO)nn(-c2ccc3c(c2)C(C(C)C)CN(c2c(F)cccc2Cl)C3=O)c1=O` (racemic) [Example 13, Racemic-2-(2-Chloro-6-fluorophenyl)-6-(4-ethyl-3-(hydroxymethyl)-5-oxo-4,5-dihydro-1H-1,2,4-triazol-1-yl)-4-isopropyl-3,4-dihydroisoquinolin-1(2H)-one] are 8.14 and 7.70. In the same order, the values of `CCn1c(CO)nn(-c2ccc3c(c2)C(c2ccccc2)CN(c2cccc(F)c2)C3=O)c1=O` (racemic) [Example 14, Racemic-6-(4-Ethyl-3-(hydroxymethyl)-5-oxo-4,5-dihydro-1H-1,2,4-triazol-1-yl)-2-(3-fluorophenyl)-4-phenyl-3,4-dihydroisoquinolin-1(2H)-one] are 6.12 and 5.99. Turning to `C=C(C)C1CN(c2c(Cl)ccnc2C)C(=O)c2cc(F)c(-n3nc(CO)n(CC)c3=O)cc21` (racemic) [Example 25, Racemic-2-(4-Chloro-2-methylpyridin-3-yl)-6-(4-ethyl-3-(hydroxymethyl)-5-oxo-4,5-dihydro-1H-1,2,4-triazol-1-yl)-7-fluoro-4-(prop-1-en-2-yl)-3,4-dihydroisoquinolin-1(2H)-one], the pIC50 is 7.20 with MOLM-13 cells (Homo sapiens, MOLM-13, 72 h) and under 7.00 on human DHODH. On the same counts, the results for `C=C(C)C1CN(c2cc(C)ccc2F)C(=O)c2cc(F)c(-n3nc(CO)n(CC)c3=O)cc21` (racemic) [Example 38, Racemic-6-(4-ethyl-3-(hydroxymethyl)-5-oxo-4,5-dihydro-1H-1,2,4-triazol-1-yl)-7-fluoro-2-(2-fluoro-5-methylphenyl)-4-(prop-1-en-2-yl)-3,4-dihydroisoquinolin-1(2H)-one] are 7.44 and 7.52. Turning to `C=C(C)C1CN(c2c(C)ccnc2Cl)C(=O)c2cc(F)c(-n3nc(CO)n(CC)c3=O)cc21` (racemic) [Example 45, Racemic-2-(2-chloro-4-methylpyridin-3-yl)-6-(4-ethyl-3-(hydroxymethyl)-5-oxo-4,5-dihydro-1H-1,2,4-triazol-1-yl)-7-fluoro-4-(prop-1-en-2-yl)-3,4-dihydroisoquinolin-1(2H)-one], the pIC50 in the assay with MOLM-13 cells (Homo sapiens, MOLM-13, 72 h) was 8.16; on human DHODH it was 8.15. For the molecule `C=C(C)C1CN(c2c(C)ccnc2Cl)C(=O)c2cc(F)c(-n3nc(CO)n(CC)c3=O)cc21` (single isomer, unassigned) [Example 46, (S*)-2-(2-Chloro-4-methylpyridin-3-yl)-6-(4-ethyl-3-(hydroxymethyl)-5-oxo-4,5-dihydro-1H-1,2,4-triazol-1-yl)-7-fluoro-4-(prop-1-en-2-yl)-3,4-dihydroisoquinolin-1(2H)-one], the pIC50 with MOLM-13 cells is 8.26. Same read-out and setting: next, `C=C(C)C1CN(c2c(C)ccnc2Cl)C(=O)c2cc(F)c(-n3nc(CO)n(CC)c3=O)cc21` (single isomer, unassigned) [Example 47, (R *)-2-(2-Chloro-4-methylpyridin-3-yl)-6-(4-ethyl-3-(hydroxymethyl)-5-oxo-4,5-dihydro-1H-1,2,4-triazol-1-yl)-7-fluoro-4-(prop-1-en-2-yl)-3,4-dihydroisoquinolin-1 (2H)-one]: 6.53. As for `C=C(C)[C@H]1CN(c2c(C)ccnc2OC)C(=O)c2cc(F)c(-n3nc(CO)n(CC)c3=O)cc21` (single isomer, unassigned; atropisomer 1) [Example 52, Atropisomer 1, (R *)-6-(4-Ethyl-3-(hydroxymethyl)-5-oxo-4,5-dihydro-1H-1,2,4-triazol-1-yl)-7-fluoro-2-(2-methoxy-4-methylpyridin-3-yl)-4-(prop-1-en-2-yl)-3,4-dihydroisoquinol in-1 (2H)-one], the negative-log IC50 (pIC50) in the assay on MOLM-13 cells is 6.98. In the assay on MOLM-13 cells, `C=C(C)[C@H]1CN(c2c(C)ccnc2OC)C(=O)c2cc(F)c(-n3nc(CO)n(CC)c3=O)cc21` (single isomer, unassigned; atropisomer 2) [Example 53, Atropisomer 2, (R*)-6-(4-Ethyl-3-(hydroxymethyl)-5-oxo-4,5-dihydro-1H-1,2,4-triazol-1-yl)-7-fluoro-2-(2-methoxy-4-methylpyridin-3-yl)-4-(prop-1-en-2-yl)-3,4-dihydroisoquinolin-1(2H)-one] showed a negative-log IC50 (pIC50) of 8.47.

For `C=C(C)[C@H]1CN(c2c(C)cnc(OC)c2Cl)C(=O)c2cc(F)c(-n3nc(CO)n(CC)c3=O)cc21` (single isomer, unassigned; atropisomer 2) [Example 65, Atropisomer 2, (R*)-2-(3-Chloro-2-methoxy-5-methylpyridin-4-yl)-6-(4-ethyl-3-(hydroxymethyl)-5-oxo-4,5-dihydro-1H-1,2,4-triazol-1-yl)-7-fluoro-4-(prop-1-en-2-yl)-3,4-dihydroisoquinolin-1(2H)-one], the pIC50 in the assay with MOLM-13 cells is 7.68.

Take `CCn1c(CO)nn(-c2cc3c(cc2F)C(=O)N(c2c(F)cccc2Cl)CN3C(C)C)c1=O` [Example 1, 3-(2-Chloro-6-fluorophenyl)-7-(4-ethyl-3-(hydroxymethyl)-5-oxo-4,5-dihydro-1H-1,2,4-triazol-1-yl)-6-fluoro-1-isopropyl-2,3-dihydroquinazolin-4(1H)-one]: the pIC50 in the assay with MOLM-13 cells (Homo sapiens, MOLM-13, 72 h) was 9.07. Consider `CCn1c(CO)nn(-c2ccc3c(c2)C(C(C)C(F)(F)F)CN(c2ccccc2F)C3=O)c1=O` (stereo not drawn) [Example 74, 6-(4-Ethyl-3-(hydroxymethyl)-5-oxo-4,5-dihydro-1H-1,2,4-triazol-1-yl)-2-(2-fluorophenyl)-4-(1,1,1-trifluoropropan-2-yl)-3,4-dihydroisoquinolin-1(2H)-one], for which the pIC50 in the assay with MOLM-13 cells (Homo sapiens, MOLM-13, 72 h) is 6.99. Still for that read-out and setting: next, `CCn1c(CO)nn(-c2ccc3c(c2)C(C(C)C(F)(F)F)CN(c2c(F)cccc2Cl)C3=O)c1=O` (stereo not drawn) [Example 75, 2-(2-Chloro-6-fluorophenyl)-6-(4-ethyl-3-(hydroxymethyl)-5-oxo-4,5-dihydro-1H-1,2,4-triazol-1-yl)-4-(1,1,1-trifluoropropan-2-yl)-3,4-dihydroisoquinolin-1(2H)-one]: 7.79.
